From publication PMC7156458, “Synthetic biology based construction of biological activity-related library of fungal decalin-containing diterpenoid pyrones” (Nature Communications, 2020)

Molecular target: Aβ42 (Homo sapiens, UniProt P05067)
Assay: Th-T (thioflavin-T) assay of Aβ42 aggregation
Assay type: biochemical
Conditions: for Th-T fluorescence of Aβ42 with compound, mean of three wells (Fig. 7a source data): concentration 50, unit not given

Chain of Aβ42 (P05067 672-713): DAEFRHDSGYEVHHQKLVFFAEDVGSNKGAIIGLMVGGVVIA

## C=C1CCC2C(C)(CCC=C(C)C)C(O)CCC2(C)C1Cc1c(OC)oc(C)c(C(=O)OC)c1=O (stereo not drawn) [Compound 14]
time-course reading M143
  Th-T fluorescence of Aβ42 with compound, mean of three wells (Fig. 7a source data): 0.7264
time-course reading M144
  Th-T fluorescence of Aβ42 with compound, mean of three wells (Fig. 7a source data): 0.7091
time-course reading M145
  Th-T fluorescence of Aβ42 with compound, mean of three wells (Fig. 7a source data): 0.7134
Head suffix _10 (concentration 10), reading M63
  Th-T fluorescence of Aβ42 (sheet Fig. 7a), mean of three wells: 2.709
Head suffix _10 (concentration 10), reading M64
  Th-T fluorescence of Aβ42 (sheet Fig. 7a), mean of three wells: 2.685
Head suffix _10 (concentration 10), reading M65
  Th-T fluorescence of Aβ42 (sheet Fig. 7a), mean of three wells: 2.69
Head suffix _10 (concentration 10), reading M66
  Th-T fluorescence of Aβ42 (sheet Fig. 7a), mean of three wells: 2.693
Head suffix _10 (concentration 10), reading M67
  Th-T fluorescence of Aβ42 (sheet Fig. 7a), mean of three wells: 2.707
Head suffix _10 (concentration 10), reading M68
  Th-T fluorescence of Aβ42 (sheet Fig. 7a), mean of three wells: 2.71
Head suffix _10 (concentration 10), reading M69
  Th-T fluorescence of Aβ42 (sheet Fig. 7a), mean of three wells: 2.6808
Head suffix _10 (concentration 10), reading M70
  Th-T fluorescence of Aβ42 (sheet Fig. 7a), mean of three wells: 2.69
Head suffix _10 (concentration 10), reading M71
  Th-T fluorescence of Aβ42 (sheet Fig. 7a), mean of three wells: 2.719
Head suffix _10 (concentration 10), reading M72
  Th-T fluorescence of Aβ42 (sheet Fig. 7a), mean of three wells: 2.755
Head suffix _10 (concentration 10), reading M73
  Th-T fluorescence of Aβ42 (sheet Fig. 7a), mean of three wells: 2.763
Head suffix _10 (concentration 10), reading M74
  Th-T fluorescence of Aβ42 (sheet Fig. 7a), mean of three wells: 2.748
Head suffix _10 (concentration 10), reading M75
  Th-T fluorescence of Aβ42 (sheet Fig. 7a), mean of three wells: 2.779
Head suffix _10 (concentration 10), reading M76
  Th-T fluorescence of Aβ42 (sheet Fig. 7a), mean of three wells: 2.777
Head suffix _10 (concentration 10), reading M77
  Th-T fluorescence of Aβ42 (sheet Fig. 7a), mean of three wells: 2.827
Head suffix _10 (concentration 10), reading M78
  Th-T fluorescence of Aβ42 (sheet Fig. 7a), mean of three wells: 2.836
Head suffix _10 (concentration 10), reading M79
  Th-T fluorescence of Aβ42 (sheet Fig. 7a), mean of three wells: 2.796
Head suffix _10 (concentration 10), reading M80
  Th-T fluorescence of Aβ42 (sheet Fig. 7a), mean of three wells: 2.789
Head suffix _10 (concentration 10), reading M81
  Th-T fluorescence of Aβ42 (sheet Fig. 7a), mean of three wells: 2.809
Head suffix _10 (concentration 10), reading M82
  Th-T fluorescence of Aβ42 (sheet Fig. 7a), mean of three wells: 2.8409
Head suffix _10 (concentration 10), reading M83
  Th-T fluorescence of Aβ42 (sheet Fig. 7a), mean of three wells: 2.8356
Head suffix _10 (concentration 10), reading M84
  Th-T fluorescence of Aβ42 (sheet Fig. 7a), mean of three wells: 2.801
Head suffix _20 (concentration 20), reading M63
  Th-T fluorescence of Aβ42 (sheet Fig. 7a), mean of three wells: 2.081
Head suffix _20 (concentration 20), reading M64
  Th-T fluorescence of Aβ42 (sheet Fig. 7a), mean of three wells: 2.033
Head suffix _20 (concentration 20), reading M65
  Th-T fluorescence of Aβ42 (sheet Fig. 7a), mean of three wells: 2.056
Head suffix _20 (concentration 20), reading M66
  Th-T fluorescence of Aβ42 (sheet Fig. 7a), mean of three wells: 1.992
Head suffix _20 (concentration 20), reading M67
  Th-T fluorescence of Aβ42 (sheet Fig. 7a), mean of three wells: 2.022
Head suffix _20 (concentration 20), reading M68
  Th-T fluorescence of Aβ42 (sheet Fig. 7a), mean of three wells: 2.054
Head suffix _20 (concentration 20), reading M69
  Th-T fluorescence of Aβ42 (sheet Fig. 7a), mean of three wells: 2.0412
Head suffix _20 (concentration 20), reading M70
  Th-T fluorescence of Aβ42 (sheet Fig. 7a), mean of three wells: 2.012
Head suffix _20 (concentration 20), reading M71
  Th-T fluorescence of Aβ42 (sheet Fig. 7a), mean of three wells: 1.97
Head suffix _20 (concentration 20), reading M72
  Th-T fluorescence of Aβ42 (sheet Fig. 7a), mean of three wells: 1.988
Head suffix _20 (concentration 20), reading M73
  Th-T fluorescence of Aβ42 (sheet Fig. 7a), mean of three wells: 1.972
Head suffix _20 (concentration 20), reading M74
  Th-T fluorescence of Aβ42 (sheet Fig. 7a), mean of three wells: 1.9541
Head suffix _20 (concentration 20), reading M75
  Th-T fluorescence of Aβ42 (sheet Fig. 7a), mean of three wells: 1.951
Head suffix _20 (concentration 20), reading M76
  Th-T fluorescence of Aβ42 (sheet Fig. 7a), mean of three wells: 1.9741
Head suffix _20 (concentration 20), reading M77
  Th-T fluorescence of Aβ42 (sheet Fig. 7a), mean of three wells: 1.953
Head suffix _20 (concentration 20), reading M78
  Th-T fluorescence of Aβ42 (sheet Fig. 7a), mean of three wells: 1.933
Head suffix _20 (concentration 20), reading M79
  Th-T fluorescence of Aβ42 (sheet Fig. 7a), mean of three wells: 1.92
Head suffix _20 (concentration 20), reading M80
  Th-T fluorescence of Aβ42 (sheet Fig. 7a), mean of three wells: 1.931
Head suffix _20 (concentration 20), reading M81
  Th-T fluorescence of Aβ42 (sheet Fig. 7a), mean of three wells: 1.911
Head suffix _20 (concentration 20), reading M82
  Th-T fluorescence of Aβ42 (sheet Fig. 7a), mean of three wells: 1.915
Head suffix _20 (concentration 20), reading M83
  Th-T fluorescence of Aβ42 (sheet Fig. 7a), mean of three wells: 1.888
Head suffix _20 (concentration 20), reading M84
  Th-T fluorescence of Aβ42 (sheet Fig. 7a), mean of three wells: 1.889
Head suffix _50 (concentration 50), reading M63
  Th-T fluorescence of Aβ42 (sheet Fig. 7a), mean of three wells: 3.83
Head suffix _50 (concentration 50), reading M64
  Th-T fluorescence of Aβ42 (sheet Fig. 7a), mean of three wells: 3.705
Head suffix _50 (concentration 50), reading M65
  Th-T fluorescence of Aβ42 (sheet Fig. 7a), mean of three wells: 3.586
Head suffix _50 (concentration 50), reading M66
  Th-T fluorescence of Aβ42 (sheet Fig. 7a), mean of three wells: 3.506
Head suffix _50 (concentration 50), reading M67
  Th-T fluorescence of Aβ42 (sheet Fig. 7a), mean of three wells: 3.421
Head suffix _50 (concentration 50), reading M68
  Th-T fluorescence of Aβ42 (sheet Fig. 7a), mean of three wells: 3.307
Head suffix _50 (concentration 50), reading M69
  Th-T fluorescence of Aβ42 (sheet Fig. 7a), mean of three wells: 3.193
Head suffix _50 (concentration 50), reading M70
  Th-T fluorescence of Aβ42 (sheet Fig. 7a), mean of three wells: 3.0995
Head suffix _50 (concentration 50), reading M71
  Th-T fluorescence of Aβ42 (sheet Fig. 7a), mean of three wells: 3.0146
Head suffix _50 (concentration 50), reading M72
  Th-T fluorescence of Aβ42 (sheet Fig. 7a), mean of three wells: 2.931
